Broadly, the Ki is the dissociation constant of the complex between target and ligand, obtained from inhibition or displacement.

Drawing on patent US7528138B2, “Pyrazolo[1,5-a]pyrimidines useful as inhibitors of protein kinases” (Vertex Pharmaceuticals Incorporated, priority 2004, dated 2009), this text covers Ki for 2 molecules.

Assay type in all cases: biochemical
For one assay, the target named is T1, Itk (Homo sapiens, UniProt Q08881).
T1 sequence (Q08881 1-620): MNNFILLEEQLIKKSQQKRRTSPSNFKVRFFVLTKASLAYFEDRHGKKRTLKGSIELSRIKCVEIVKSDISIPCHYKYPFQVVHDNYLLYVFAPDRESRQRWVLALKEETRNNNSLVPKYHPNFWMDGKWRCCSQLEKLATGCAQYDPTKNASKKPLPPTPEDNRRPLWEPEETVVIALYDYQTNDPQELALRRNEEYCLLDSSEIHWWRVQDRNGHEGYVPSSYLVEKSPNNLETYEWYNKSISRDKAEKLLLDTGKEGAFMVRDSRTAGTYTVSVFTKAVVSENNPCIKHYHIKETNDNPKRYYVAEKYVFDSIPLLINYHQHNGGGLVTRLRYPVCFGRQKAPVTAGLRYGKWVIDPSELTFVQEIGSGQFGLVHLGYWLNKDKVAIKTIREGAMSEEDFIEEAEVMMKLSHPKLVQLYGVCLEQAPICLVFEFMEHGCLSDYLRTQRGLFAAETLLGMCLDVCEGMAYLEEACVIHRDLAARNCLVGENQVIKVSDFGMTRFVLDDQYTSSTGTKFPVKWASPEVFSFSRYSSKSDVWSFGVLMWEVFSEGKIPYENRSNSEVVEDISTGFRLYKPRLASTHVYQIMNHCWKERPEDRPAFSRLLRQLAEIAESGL
The assay is described as follows: ITK Inhibition Assay (Radiometric), radioactive-phosphate incorporation. As to conditions: enzyme inhibition data (Ki), Table 11; radiometric or UV assay not stated. The procedure, abridged:
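Radiometric 33P incorporation into SAM68 peptide (D332-443) with filter capture and scintillation counting; 10 min pre-incubation then 10 min reaction at 25° C. IC50 format: 30 nM Itk, 15 μM ATP, 2 μM peptide, HEPES pH 7.5. Ki(app) format: 50 nM Itk, 7.5 μM ATP, 3 μM peptide, MOPS pH 7.0.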

In a further assay the target is T2, Aurora-2 (Homo sapiens, UniProt O14965).
T2 sequence (O14965 1-403): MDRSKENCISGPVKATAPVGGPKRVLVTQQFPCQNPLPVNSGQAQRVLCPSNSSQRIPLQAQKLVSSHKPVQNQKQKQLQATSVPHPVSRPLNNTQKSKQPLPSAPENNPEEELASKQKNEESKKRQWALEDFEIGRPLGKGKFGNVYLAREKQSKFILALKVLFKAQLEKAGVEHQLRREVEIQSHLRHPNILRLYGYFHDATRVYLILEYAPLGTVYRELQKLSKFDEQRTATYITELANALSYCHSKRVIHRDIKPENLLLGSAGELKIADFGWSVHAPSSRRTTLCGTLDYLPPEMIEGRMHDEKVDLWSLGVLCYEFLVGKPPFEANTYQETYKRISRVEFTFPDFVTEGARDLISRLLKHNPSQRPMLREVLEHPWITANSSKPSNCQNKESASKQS
The assay is described as follows: Aurora-A (Aurora-2) Inhibition Assay, coupled enzyme assay. The note with it: enzyme inhibition data (Ki), Table 11; read-out: AurA Ki. Here is the method: Compounds are screened for their ability to inhibit Aurora-2 using a standard coupled enzyme assay (Fox et al., Protein Sci., (1998) 7, 2249). Assays are carried out in a mixture of 100 mM Hepes (pH7.5), 10 mM MgCl2, 1 mM DTT, 25 mM NaCl, 2.5 mM phosphoenolpyruvate, 300 μM NADH, 30 μg/ml pyruvate kinase and 10 μg/ml lactate dehydrogenase. Final substrate concentrations in the assay are 400 μM ATP (Sigma Chemicals) and 570 μM peptide (Kemptide, American Peptide, Sunnyvale, Calif.). Assays are carried out at 30° C. and in the presence of 40 nM Aurora-2.
An assay stock buffer solution is prepared containing all of the reagents listed above, with the exception of Aurora-2 and the test compound of interest. 55 μl of the stock solution is placed in a 96 well plate followed by addition of 2 μl of DMSO stock containing serial dilutions of the test compound (typically starting from a final concentration of 7.5 μM). The plate is preincubated for 10 minutes at 30° C. and the reaction initiated by addition of 10 μl of Aurora-2. Initial reaction rates are determined with a Molecular Devices SpectraMax Plus plate reader over a 10 minute time course. IC50 and Ki data are calculated from non-linear regression analysis using the Prism software package (GraphPad Prism version 3.0cx for Macintosh, GraphPad Software, San Diego Calif., USA).

The target of the next assay is c-Met (Homo sapiens, UniProt P08581). As to the kind of experiment: c-Met Inhibition Assay, coupled enzyme system. As to conditions: enzyme inhibition data (Ki), Table 11. An outline of the steps: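 Pyruvate kinase/lactate dehydrogenase-coupled NADH assay in HEPES pH 7.5 with 80 nM c-Met, 200 μM ATP and 10 μM polyGluTyr at 30° C. Compound (0.006–12.5 μM final, 12-point) preincubated 10 min before ATP start; rates over 10 min gave Ki.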

Each structure is given as a SMILES string.

Sequence of c-Met (P08581 25-1390): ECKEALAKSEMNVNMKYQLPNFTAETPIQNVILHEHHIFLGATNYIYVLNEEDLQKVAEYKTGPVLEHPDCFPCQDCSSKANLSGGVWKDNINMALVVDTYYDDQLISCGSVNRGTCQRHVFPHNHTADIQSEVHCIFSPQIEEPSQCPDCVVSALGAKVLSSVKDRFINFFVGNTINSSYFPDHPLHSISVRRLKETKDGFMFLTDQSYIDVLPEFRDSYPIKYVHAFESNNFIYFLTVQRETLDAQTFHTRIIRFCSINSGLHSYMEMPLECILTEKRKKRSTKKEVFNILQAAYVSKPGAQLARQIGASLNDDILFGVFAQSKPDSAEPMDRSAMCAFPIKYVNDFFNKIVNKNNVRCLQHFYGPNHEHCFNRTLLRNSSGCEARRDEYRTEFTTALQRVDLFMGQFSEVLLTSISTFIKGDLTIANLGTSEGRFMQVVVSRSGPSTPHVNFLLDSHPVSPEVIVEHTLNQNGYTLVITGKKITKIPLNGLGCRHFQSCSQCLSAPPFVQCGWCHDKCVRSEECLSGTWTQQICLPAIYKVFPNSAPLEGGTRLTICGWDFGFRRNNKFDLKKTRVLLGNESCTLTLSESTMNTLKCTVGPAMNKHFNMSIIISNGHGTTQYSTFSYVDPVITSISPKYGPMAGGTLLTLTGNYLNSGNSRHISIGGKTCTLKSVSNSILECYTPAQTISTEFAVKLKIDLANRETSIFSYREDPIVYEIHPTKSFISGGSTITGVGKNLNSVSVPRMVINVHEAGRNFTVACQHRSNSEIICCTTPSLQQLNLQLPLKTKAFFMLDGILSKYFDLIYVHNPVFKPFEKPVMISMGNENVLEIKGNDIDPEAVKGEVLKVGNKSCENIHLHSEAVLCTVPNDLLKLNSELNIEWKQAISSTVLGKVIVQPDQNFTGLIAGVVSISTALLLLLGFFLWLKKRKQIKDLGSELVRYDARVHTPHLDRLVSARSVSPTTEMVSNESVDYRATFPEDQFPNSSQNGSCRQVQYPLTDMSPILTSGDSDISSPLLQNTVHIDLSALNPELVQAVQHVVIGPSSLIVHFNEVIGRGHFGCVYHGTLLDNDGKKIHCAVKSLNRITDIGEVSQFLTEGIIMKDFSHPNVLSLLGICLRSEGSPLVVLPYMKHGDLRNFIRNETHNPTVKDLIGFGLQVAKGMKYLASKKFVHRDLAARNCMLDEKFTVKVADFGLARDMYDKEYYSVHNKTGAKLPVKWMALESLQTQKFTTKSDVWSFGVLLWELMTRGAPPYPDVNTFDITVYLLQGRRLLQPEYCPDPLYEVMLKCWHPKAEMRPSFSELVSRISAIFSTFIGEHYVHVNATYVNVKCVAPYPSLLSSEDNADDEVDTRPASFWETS

For the molecule `CC(C)(C)OC(=O)NCc1ccc(-c2cnc3c(-c4ccccn4)c(N)nn3c2)cc1` [Compound V-192], the inhibition constant (Ki) on Itk and on Aurora-2 was < 500 nM each time.
Consider `Nc1nn2cc(-c3ccc(CN4CCCNCC4)cc3)cnc2c1-c1ccccn1` [Compound V-224], for which the Ki at c-Met, on Itk and on Aurora-2 was < 500 nM in each case.
